Test [1] concerns HIV-1 IIIB. The test can be described thus: HIV-1 entry inhibition assay in TZM-bl reporter cells, X4 strain. In kind it is cell-based.
In test [2] the target is T1, CXCR4 (Homo sapiens, UniProt P61073). The test can be described thus: Inhibition of CXCR4 mAb-binding to TZM-bl cells. The following applies: serial dilutions in 1 μg/ml CXCR4 mAb, fixed TZM-bl cells, 40 min on ice.
Test [3] has as its target T1, CXCR4. The test can be described thus: cell-based. The following applies: TZM-bl, read-out: Inhibition of cell-associated 4DV3-Biot.

Entries after “also recorded” stand apart in the source; their conditions may differ.

In general, IC50 refers to the point on the concentration scale where inhibition reaches its midpoint. The inhibition is the change of the read-out against control, counted positive when it falls.

T1 sequence (P61073 whole entry): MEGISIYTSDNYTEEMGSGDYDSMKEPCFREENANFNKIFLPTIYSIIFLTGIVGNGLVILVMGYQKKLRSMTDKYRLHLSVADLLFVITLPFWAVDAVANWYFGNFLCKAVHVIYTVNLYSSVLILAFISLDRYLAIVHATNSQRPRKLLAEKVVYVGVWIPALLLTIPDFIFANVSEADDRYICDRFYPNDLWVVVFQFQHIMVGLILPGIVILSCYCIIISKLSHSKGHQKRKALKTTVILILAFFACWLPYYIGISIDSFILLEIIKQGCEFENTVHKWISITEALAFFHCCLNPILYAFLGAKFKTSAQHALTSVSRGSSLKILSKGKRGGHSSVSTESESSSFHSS

Turning to `c1cc(CN2CCCNCCNCCCNCC2)ccc1CN1CCCNCCNCCCNCC1` [AMD3100, bicyclam JM-2987], the IC50 in test [1] (Human immunodeficiency virus 1, IIIB, TZM-bl, read-out: IC50 of HIV-1 entry inhibition, X4 strain HIV-1 IIIB) came to 0.415 nM. Besides, the “Potency of HIV-1 IIIB entry inhibition relative to 4DV3-FITC” value in test [1] (more potent than 4DV3-FITC, ratio of IC50, TZM-bl cells) is reported as 1000 fold. In addition, in test [2], the “Inhibition of CXCR4 mAb clone 44708 binding to TZM-bl cells, in words” value is “poor ability to inhibit mAb binding; also recorded: ineffective at the tested concentrations”. In addition, in test [3], the inhibition at 20 µM is 31% and the inhibition at 200 µM is 47%.

The values are drawn from PMC6286870 (European journal of pharmaceutics and biopharmaceutics : …, 2018).
